Measured values reported in patent publication US6770660B2, “Method for inhibiting platelet aggregation” (Artery LLC, priority 2002, dated 2004).
Counter-ions that a name gives are not always drawn. Like-named read-outs stand apart in the source and are kept apart here.

Columns and labels:
[1] = for major bleeding episodes: patients
Protocol: Patients were treated with a 20 μg/kg bolus of tirofiban hydrochloride followed by a 0.15 μg/kg/min infusion for 18-24 hours or a 25 μg/kg bolus followed by the same infusion. Enrollment of subjects in the panel with the 20 μg/kg bolus (n=15/panel) was completed and the clinical effects and pharmacodynamic properties were evaluated before subjects were enrolled in the panel with the 25 μg/kg bolus. Patients were treated with aspirin (325 mg before the procedure and daily) and unfractionated heparin (target activated clotting time 250 seconds). Clopidogrel (300 mg and then 75 mg daily)(commercially available as PLAVIX®) was administered at least 45 minutes after the start of tirofiban hydrochloride. All other medications were administered at the discretion of the attending cardiologist. Sheath removal was performed when the activated clotting time was less than 175 seconds unless a closure device was used. […] The occurrence of 3 major bleeding episodes (as defined by the American College of Cardiology Task force (Cannon et al. J. Am. Coll. Cardiol. (2001) vol. 38 pp. 2114-30) in each panel was a pre-specified criteria for termination of the study.

platelet aggregation [2] = conditions: patients, 15 through 60 minutes, 20 μM adenosine diphosphate, monohydrochloride
Protocol: Patients were treated with a 20 μg/kg bolus of tirofiban hydrochloride followed by a 0.15 μg/kg/min infusion for 18-24 hours or a 25 μg/kg bolus followed by the same infusion. Enrollment of subjects in the panel with the 20 μg/kg bolus (n=15/panel) was completed and the clinical effects and pharmacodynamic properties were evaluated before subjects were enrolled in the panel with the 25 μg/kg bolus. Patients were treated with aspirin (325 mg before the procedure and daily) and unfractionated heparin (target activated clotting time 250 seconds). Clopidogrel (300 mg and then 75 mg daily)(commercially available as PLAVIX®) was administered at least 45 minutes after the start of tirofiban hydrochloride. All other medications were administered at the discretion of the attending cardiologist. Sheath removal was performed when the activated clotting time was less than 175 seconds unless a closure device was used.

[3] = tested on: capacity of platelets to bind fibrinogen; conditions: 25 μg/kg (high) bolus compared with 20 μg/kg bolus; 1 μM adenosine diphosphate; flow cytometry
Protocol: Blood was obtained after 5 minutes for analysis by flow cytometry. […] Blood for flow cytometry was anticoagulated with corn trypsin inhibitor, a specific inhibitor of coagulation factor XIIa without effect on other coagulation factors (Schneider et al., Circulation (1997) vol. 96 pp. 2877-83). […] For flow cytometry, samples were processed and platelets were fixed at each site. […] Light transmission aggregometry and rapid platelet function analyzer were performed with […] -chloromethyl ketone as the anticoagulant and flow cytometry was performed with blood anticoagulated with corn trypsin inhibitor.

platelet aggregation [4] = conditions: patients; 10 μg/kg bolus followed by 0.15 μg/kg/min infusion; 15 to 60 minutes after bolus; monohydrochloride; cited from earlier work

## CCCCS(=O)(=O)N[C@@H](Cc1ccc(OCCCCC2CCNCC2)cc1)C(=O)O [tirofiban hydrochloride, N-(butylsulfonyl)-O-[4-(4-piperidinyl)butyl]-L-tyrosine monohydrochloride]
[1]; about 25 μg/kg bolus compared with conventional bolus
  undesirable side effects: absence of increased undesirable side effects
[1]; 20 μg/kg bolus followed by 0.15 μg/kg/min infusion for 18-24 hours
  major bleeding episodes: No major bleeding episode occurred
[1]; 25 μg/kg bolus followed by 0.15 μg/kg/min infusion for 18-24 hours
  major bleeding episodes: No major bleeding episode occurred
Platelet aggregation [2]; 20 μg/kg bolus followed by 0.15 μg/kg/min infusion
  average extent of inhibition of platelet aggregation / % Inhibition of platelet aggregation 15-60 minutes after bolus injection: 84-89%
Platelet aggregation [2]; 25 μg/kg bolus followed by 0.15 μg/kg/min infusion, listed as tirofiban
  average extent of inhibition of platelet aggregation / % Inhibition of platelet aggregation 15-60 minutes after bolus injection: 92-95%
Platelet aggregation [2]; 25 μg/kg bolus followed by 0.15 μg/kg/min infusion
  average extent of inhibition of platelet aggregation / % Inhibition of platelet aggregation 15-60 minutes after bolus injection: greater than 90%
[3]
  extent of inhibition of the capacity to bind fibrinogen: greater
Platelet aggregation [4]
  average inhibition of maximal aggregation / % Inhibition of platelet aggregation 15-60 minutes after bolus injection: 61-66%
